Experimental data: patent publication US20150018301A1, “LRRK-2-Mediated Neuronal Toxicity” (THE JOHNS HOPKINS UNIVERSITY, priority 2009, published 2015)

Key:
Assay type in all cases: biochemical
LRRK2 WT [1] = target: T1, LRRK2 WT (Homo sapiens, UniProt Q5S007); assay: In vitro kinase assay: LRRK2 autophosphorylation; details: for IC50: Table 2, mean of three experiments; for LRRK2 autophosphorylation Average ± SEM: compound 16 μM, phosphorylation normalized to absence of compound, mean ± S.E.M. of three experiments; for effect on LRRK2 autophosphorylation: screen at 16 μM
LRRK2 WT [2] = target: T1, LRRK2 WT; assay: In vitro kinase assay: LRRK2-mediated MBP phosphorylation; details: for IC50: Table 2, mean of three experiments; for MBP phosphorylation Average ± SEM: compound 16 μM, 30° C., 15 min, normalized to absence of compound, mean ± S.E.M. of three experiments; for effect on LRRK2-mediated phosphorylation of MBP: screen at 16 μM
LRRK2 G2019S [3] = target: T2, LRRK2 G2019S (Homo sapiens, UniProt Q5S007, G2019S); assay: In vitro kinase assay: G2019S LRRK2 autophosphorylation; details: Table 2; mean of three experiments
Experimental: (§1) Transfection was performed by using Fugene HD reagent (Roche Applied Science) according to the manufacturer's instruction. For purification of recombinant LRRK1 and LRRK2 proteins, ACTA Purifier (GE Healthcare) FPLC system was used.
(§2) Resulting lysates were rotated at 4° C. for 30 min followed by centrifugation at 20,000×g for 15 min. The supernatants were injected into a GSTrap FF column pre-equilibrated with PBS at 0.5. mL/min flow after filtration using a 0.2 μm syringe filter (Corning). The bound proteins were eluted with buffer containing 10 mM GSH (Sigma), 150 mM NaCl, and 50 mM Tris-HCl (pH 8.0).
(§3) The in vitro kinase assay was performed as previously described. […] Recombinant LRRK2 and MBP or CST-4E-BP1 were combined before the kinase reaction. LRRK2 autophosphorylation is LRRK2 itself phosphorylation and MBP or GST-4E-BP1 phosphorylation is induced by LRRK2. After the kinase reaction, combined LRRK2 and MBP or GST-4E-BP1 were loaded on SDSPAGE and phosphorylated LRRK2 and MBP or GST-4E-BP1 could be detected separately an a single gel. Recombinant proteins and inhibitors were incubated at 30° C. in kinase assay buffer containing 20 mM Hepes (pH 7.4), 5 mM EGTA, and 20 mM β-glycerol phosphate. 0.5 μg MBP (Upstate) or 0.5 μg GST-4B-BP1, 50 μM ATP (Sigma), 20 mM MgCl2, and 1 μCi [γ-32P] ATP (PerkinElmer) was added after 5 min. The reaction was performed at 30° C. to reduce non-specific 32P incorporation for 15 min and terminated by the addition of 5×Laemmili sample buffer. […] Gels were stained by coomassie brilliant blue after fixation with 10% acetic acid and 40% methanol and then exposed to a Phosphoimager. Data were analyzed by ImageQuant 6.0 software.
(§4) To calculate the IC50 value, a dose-response curve was constructed and non-linear regression analysis using the equation for a sigmoid plot.

LRRK2 G2019S [4] = target: T2, LRRK2 G2019S; assay: In vitro kinase assay: G2019S LRRK2-mediated MBP phosphorylation; details: Table 2; mean of three experiments
Experimental: as §1, §2, §3, §4

T2 sequence (Q5S007 whole entry G2019S): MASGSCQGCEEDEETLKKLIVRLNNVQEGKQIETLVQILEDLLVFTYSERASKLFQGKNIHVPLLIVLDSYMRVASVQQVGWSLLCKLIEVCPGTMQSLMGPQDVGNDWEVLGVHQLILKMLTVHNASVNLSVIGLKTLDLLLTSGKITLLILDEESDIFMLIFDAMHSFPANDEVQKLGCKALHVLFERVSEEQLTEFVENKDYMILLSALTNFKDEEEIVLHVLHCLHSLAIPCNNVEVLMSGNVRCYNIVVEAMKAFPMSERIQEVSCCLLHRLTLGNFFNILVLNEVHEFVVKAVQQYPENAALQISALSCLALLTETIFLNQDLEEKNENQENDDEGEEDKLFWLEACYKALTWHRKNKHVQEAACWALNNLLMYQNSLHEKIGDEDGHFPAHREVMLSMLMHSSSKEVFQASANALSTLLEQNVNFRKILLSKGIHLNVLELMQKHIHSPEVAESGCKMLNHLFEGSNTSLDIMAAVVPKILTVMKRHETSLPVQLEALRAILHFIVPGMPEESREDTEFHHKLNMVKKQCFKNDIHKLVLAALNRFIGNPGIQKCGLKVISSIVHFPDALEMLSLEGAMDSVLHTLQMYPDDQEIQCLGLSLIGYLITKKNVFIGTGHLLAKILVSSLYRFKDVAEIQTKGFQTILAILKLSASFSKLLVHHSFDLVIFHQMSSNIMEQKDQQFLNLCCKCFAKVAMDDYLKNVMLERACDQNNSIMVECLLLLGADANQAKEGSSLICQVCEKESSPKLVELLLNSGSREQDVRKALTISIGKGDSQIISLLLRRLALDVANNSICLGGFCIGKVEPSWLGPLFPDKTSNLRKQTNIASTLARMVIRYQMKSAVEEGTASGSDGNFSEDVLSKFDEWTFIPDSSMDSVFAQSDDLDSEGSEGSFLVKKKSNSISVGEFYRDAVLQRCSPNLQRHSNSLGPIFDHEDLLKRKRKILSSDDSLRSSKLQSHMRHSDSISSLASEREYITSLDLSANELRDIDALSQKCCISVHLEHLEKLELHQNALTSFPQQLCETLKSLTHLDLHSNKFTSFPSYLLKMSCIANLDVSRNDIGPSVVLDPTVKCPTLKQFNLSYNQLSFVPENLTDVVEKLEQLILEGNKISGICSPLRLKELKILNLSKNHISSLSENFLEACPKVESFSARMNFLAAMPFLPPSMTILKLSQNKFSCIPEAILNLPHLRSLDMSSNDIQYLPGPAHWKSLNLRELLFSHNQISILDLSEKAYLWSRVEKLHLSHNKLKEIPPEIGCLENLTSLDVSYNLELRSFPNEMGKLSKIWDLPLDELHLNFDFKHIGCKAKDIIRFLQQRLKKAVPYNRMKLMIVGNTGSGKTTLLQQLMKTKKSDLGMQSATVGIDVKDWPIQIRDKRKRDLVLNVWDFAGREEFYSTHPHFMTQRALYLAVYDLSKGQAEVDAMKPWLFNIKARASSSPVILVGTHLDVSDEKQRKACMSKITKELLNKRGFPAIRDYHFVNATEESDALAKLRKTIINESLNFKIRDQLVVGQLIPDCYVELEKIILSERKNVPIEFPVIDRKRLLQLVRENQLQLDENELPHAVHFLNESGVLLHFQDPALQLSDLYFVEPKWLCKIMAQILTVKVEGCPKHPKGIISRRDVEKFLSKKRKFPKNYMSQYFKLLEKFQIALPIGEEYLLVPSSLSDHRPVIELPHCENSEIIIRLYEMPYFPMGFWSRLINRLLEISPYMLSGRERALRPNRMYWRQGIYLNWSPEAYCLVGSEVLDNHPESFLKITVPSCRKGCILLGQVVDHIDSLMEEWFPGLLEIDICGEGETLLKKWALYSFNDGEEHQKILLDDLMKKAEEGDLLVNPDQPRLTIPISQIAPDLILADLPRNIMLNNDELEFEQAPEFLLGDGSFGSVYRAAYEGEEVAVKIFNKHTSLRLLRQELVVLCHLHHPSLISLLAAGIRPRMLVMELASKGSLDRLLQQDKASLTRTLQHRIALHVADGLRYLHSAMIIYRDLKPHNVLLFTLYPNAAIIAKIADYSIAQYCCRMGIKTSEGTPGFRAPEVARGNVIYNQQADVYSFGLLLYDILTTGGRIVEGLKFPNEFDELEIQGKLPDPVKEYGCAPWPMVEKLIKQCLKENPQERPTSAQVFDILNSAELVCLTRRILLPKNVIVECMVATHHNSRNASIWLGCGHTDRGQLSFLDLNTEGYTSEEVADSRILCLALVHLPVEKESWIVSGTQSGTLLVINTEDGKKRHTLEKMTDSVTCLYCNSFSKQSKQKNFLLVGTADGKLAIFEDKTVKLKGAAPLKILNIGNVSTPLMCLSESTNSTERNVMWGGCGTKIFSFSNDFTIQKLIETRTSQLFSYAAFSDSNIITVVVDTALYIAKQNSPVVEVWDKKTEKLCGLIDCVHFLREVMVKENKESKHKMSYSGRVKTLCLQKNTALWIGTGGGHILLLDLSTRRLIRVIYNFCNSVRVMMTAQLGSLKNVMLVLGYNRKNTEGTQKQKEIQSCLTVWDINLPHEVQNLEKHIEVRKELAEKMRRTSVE
T1 sequence (Q5S007 whole entry): as the sequence (Q5S007 whole entry G2019S) above, with S2019G counted along it

Row | Structure (SMILES) | LRRK2 autophosphorylation Average ± SEM (LRRK2 WT [1]) | MBP phosphorylation Average ± SEM (LRRK2 WT [2]) | other results
1 | Nc1ncnc2c1c(I)cn2[C@@H]1O[C@H](CO)[C@@H](O)[C@H]1O [Inhibitor 49, 5-iodo-tubercidin, reference compound] | 29.4 ± 14.7 % of control | 39.3 ± 9.9 % of control | IC50 (LRRK2 WT [1]): 3.21 µM; effect on LRRK2 autophosphorylation (LRRK2 WT [1]): substantially inhibited; IC50 (LRRK2 WT [2]): 14.8 µM; effect on LRRK2-mediated phosphorylation of MBP (LRRK2 WT [2]): substantially inhibited; IC50 (LRRK2 G2019S [3]): 4.23 µM; IC50 (LRRK2 G2019S [4]): 3.41 µM
2 | O=C1c2ccccc2-c2n[nH]c3cccc1c23 [Inhibitor 68, SP600125, reference compound] | 18.3 ± 22.8 % of control | 31.2 ± 12.1 % of control | IC50 (LRRK2 WT [1]): 3.71 µM; effect on LRRK2 autophosphorylation (LRRK2 WT [1]): substantially inhibited; IC50 (LRRK2 WT [2]): 3.1 µM; effect on LRRK2-mediated phosphorylation of MBP (LRRK2 WT [2]): substantially inhibited; IC50 (LRRK2 G2019S [3]): 3.37 µM; IC50 (LRRK2 G2019S [4]): 5 µM
3 | Cn1cc(C2=C(c3cn(CCCSC(=N)N)c4ccccc34)C(=O)NC2=O)c2ccccc21 [Inhibitor 33, Ro31-8220, reference compound] | 5.4 ± 3.0 % of control | 26.0 ± 38.5 % of control | IC50 (LRRK2 WT [1]): 1.64 µM; effect on LRRK2 autophosphorylation (LRRK2 WT [1]): substantially inhibited; IC50 (LRRK2 WT [2]): 0.05 µM; effect on LRRK2-mediated phosphorylation of MBP (LRRK2 WT [2]): substantially inhibited; IC50 (LRRK2 G2019S [3]): 4.51 µM; IC50 (LRRK2 G2019S [4]): 5.16 µM
4 | O=c1c(-c2ccc(O)cc2)coc2cc(O)cc(O)c12 [Inhibitor 59] | 69.4 ± 37.9 % of control | 63.1 ± 66.7 % of control | 
5 | N#CC(C#N)=Cc1cc(O)c(O)c([N+](=O)[O-])c1 [Inhibitor 17] | 89 ± 54.9 % of control | 116.0 ± 9.8 % of control | 
6 | OC[C@@H]1O[C@H](n2cnc3cc(Cl)c(Cl)cc32)[C@@H](O)[C@H]1O [Inhibitor 66] | 56.4 ± 12.9 % of control | 120.8 ± 78.0 % of control | 
7 | CC(C)(C)c1cc(C=C(C#N)C#N)cc(C(C)(C)C)c1O [Inhibitor 20] | 109.0 ± 19.7 % of control | 120.7 ± 29.4 % of control | 
8 | N#CC(C#N)=C(N)/C(C#N)=C/c1cc(O)c(O)c(O)c1 [Inhibitor 15] | 79 ± 49.6 % of control | 105.1 ± 19.1 % of control | 
9 | O=S(=O)(NCCNC/C=C/c1ccc(Br)cc1)c1cccc2cnccc12 [Inhibitor 35] | 90.8 ± 2.5 % of control | 85.3 ± 54.2 % of control | 
10 | O=P(O)(O)Cc1ccccc1 [Inhibitor 74] | 68.3 ± 1.85 % of control | 121.8 ± 23.6 % of control | 
11 | O=C(O)c1cc(N(Cc2ccccc2O)Cc2cc(O)ccc2O)ccc1O [Inhibitor 9] | 84.3 ± 21.1 % of control | 65.2 ± 35.5 % of control | 
12 | N#CC(C#N)=Cc1ccc(O)cc1 [Inhibitor 83] | 68.6 ± 35.5 % of control | 118.2 ± 51.8 % of control | 
13 | CC(C)n1cnc2c(NCc3ccccc3)nc(NCCO)nc21 [Inhibitor 45] | 56.2 ± 30.8 % of control | 111.7 ± 69.7 % of control | 
14 | N#CC(=C(/N)Sc1ccccc1N)/C(C#N)=C(\N)Sc1ccccc1N [Inhibitor 2] | 86.9 ± 10.3 % of control | 101.0 ± 105 % of control | 
15 | Cl.O=S(=O)(c1cccc2c(I)cccc12)N1CCCNCC1 [Inhibitor 42] | 87.3 ± 14.8 % of control | 89.4 ± 71.9 % of control | 
16 | Cc1cc2ncc(-c3ccccc3)nc2cc1C [Inhibitor 19] | 89.4 ± 12.5 % of control | 104.3 ± 14.6 % of control | 

Row | Structure (SMILES) | LRRK2 autophosphorylation Average ± SEM (LRRK2 WT [1]) | MBP phosphorylation Average ± SEM (LRRK2 WT [2]) | other results
17 | COC[C@H]1OC(=O)c2coc3c2[C@@]1(C)C1=C(C3=O)[C@@H]2CCC(=O)[C@@]2(C)C[C@H]1OC(C)=O [Inhibitor 30] | 83.0 ± 23.6 % of control | 66.8 ± 29.1 % of control | 
18 | C#COC1(C)[C@@H]2CC[C@@H](O2)C1(C)C(=O)O (stereo partly shown) [Inhibitor 71] | 75.9 ± 2.1 % of control | 99.8 ± 3.4 % of control | 
19 | COc1cc2ncnc(Nc3cccc(Cl)c3)c2cc1OC [Inhibitor 18] | 63.7 ± 28.0 % of control | 110.0 ± 44.0 % of control | 
20 | Cc1ccc(S(=O)(=O)/C=C/C#N)cc1 [Inhibitor 65] | 75.1 ± 12.8 % of control | 124.8 ± 23.5 % of control | 
21 | COc1cccc(-c2cc(=O)c3ccccc3o2)c1N [Inhibitor 1] | 77.9 ± 30.6 % of control | 77.5 ± 55.0 % of control | 
22 | CC[C@@H](CO)Nc1nc(NCc2ccccc2)c2ncn(C(C)C)c2n1 [Inhibitor 48] | 69.4 ± 30.1 % of control | 100.1 ± 41.5 % of control | 
23 | Brc1ccc([C@H]2CN3CCSC3=N2)cc1 [Inhibitor 75] | 75.9 ± 3.9 % of control | 83.2 ± 50.5 % of control | 
24 | Oc1cc(O)cc(/C=C/c2ccc(O)c(O)c2)c1 [Inhibitor 23] | 87 ± 38.6 % of control | 93.0 ± 17.8 % of control | 
25 | Cc1ccc(-c2nn(C(C)(C)C)c3ncnc(N)c23)cc1 [Inhibitor 24] | 88.3 ± 17.1 % of control | 103.6 ± 60.1 % of control | 
26 | Cl.c1ccc([C@H]2CN3CCSC3=N2)cc1 [Inhibitor 78] | 74.6 ± 1.7 % of control | 133.2 ± 17.6 % of control | 
27 | N#C/C(=C\c1ccc(O)c(O)c1)C(=O)Nc1ccccc1 [Inhibitor 7] | 56.1 ± 27.6 % of control | 75.6 ± 56.9 % of control | 
28 | COC(=O)/C=C/c1cc(O)ccc1O [Inhibitor 61] | 73.0 ± 5.3 % of control | 93.9 ± 11.5 % of control | 
29 | CC(=O)c1c(O)c(C)c(O)c(Cc2c(O)c3c(c(C(=O)/C=C/c4ccccc4)c2O)OC(C)(C)C=C3)c1O [Inhibitor 58] | 28.1 ± 39.8 % of control | 147.2 ± 64.3 % of control | 
30 | O=c1c(O)c(-c2ccc(O)c(O)c2)oc2cc(O)cc(O)c12 [Inhibitor 62, Quercetin dihydrate] | 39.2 ± 39.9 % of control | 70.1 ± 40.5 % of control | 
31 | O=P(O)(O)CCc1ccc2ccccc2c1O [Inhibitor 21] | 120.8 ± 54.1 % of control | 138.2 ± 36.9 % of control | 
32 | C=CC(=O)c1ccc2ccccc2c1 [Inhibitor 64] | 70.7 ± 4.2 % of control | 123.7 ± 26.3 % of control | 
